“Also recorded” adds a separate entry of the source.
What was measured:
mice [1] = assay: Four plate test, traction and electric shock; format: in vivo, mouse; conditions: i.p.
Method: The test is performed on groups of 10 mice 30 minutes after the administration of CRL 41 153.

mice [2] = assay: Overall behavior and reactivities in mice; format: in vivo, mouse; conditions: dose not stated
Method: (§1) In the neuropsychopharmacological study which follows, a solution of CRL 41 153 in distilled water (pH 1.5) was administered intraperitoneally in a volume of 20 ml/kg to male mice and 5 ml/kg to male rats.
(§2) Groups of three animals are observed before and then 0.25 hour, 0.50 hour, 1 hour, 2 hours, 3 hours and 24 hours after the administration of CRL 41 153.

rats [3] = assay: Interaction with amphetamine; format: in vivo, rat; conditions: i.p.
Method: Amphetamine (2 mg/kg) is injected intraperitoneally into groups of 6 rats 30 minutes after the administration of CRL 41 153. […] 4 mg/kg and 16 mg/kg, CRL 41 153 potentiates the intensity and duration of the stereotypies induced by amphetamine.

CNS [4] = assay: Neuropsychopharmacological profile as a whole; format: in vivo, mice and rats; conditions: for Peripheral α-adrenergic signs (mydriasis, salivation, lacrimation, exophthalmos): species and dose not stated
Method: as §1

mice [5] = assay: Interaction with apomorphine in mice; format: in vivo, mouse; conditions: i.p.
Method: Groups of 6 mice receive CRL 41 153 0.5 hour before the subcutaneous injection of 1 or 16 mg/kg of apomorphine.

rats [6] = assay: Overall behavior and reactivities in rats; format: in vivo, rat; conditions: dose not stated
Method: as §1, §2

mice [7] = assay: Spontaneous motility; format: in vivo, mouse; conditions: i.p.
Method: 0.5 hour after they have received CRL 41 153, the mice (6 per dose, 12 control animals) are placed in an actimeter, where their motility is recorded for 30 minutes.

mice [8] = assay: Motility reduced by hypoxic aggression; format: in vivo, mouse; conditions: i.p.
Method: Half an hour after they have received CRL 41 153, the mice (10 per dose, 20 control animals) are subjected to acute hypobaric anoxia [pressure reduction of 600 mm Hg (i.e. about 8×10^4 Pa) in 90 seconds; release of vacuum in 45 seconds] and are then placed in an actimeter, where their motility is recorded for 10 minutes.

CNS [9] = assay: Complementary tests by oral (gastric) administration; format: in vivo; conditions: gastric vs i.p.
mice [10] = assay: Particular toxicity in grouped mice; conditions: mice
Method: (§3) The number of dead animals is noted after 1 hour, 2 hours, 3 hours, 4 hours and 24 hours.

mice [11] = assay: Interaction with barbital; format: in vivo, mouse; conditions: i.p., barbital 220 mg/kg
Method: Half an hour after the administration of CRL 41 153, groups of 10 mice receive an intraperitoneal injection of barbital (220 mg/kg).

mice [12] = assay: Behavioral despair; format: in vivo, mouse; conditions: forcibly immersed mice, i.p.
Description: Half an hour after they have received CRL 41 153, groups of 6 mice are placed in a beaker filled with water to a height of 6 cm. The total period of immobility between the 2nd and 6th minutes following immersion is noted.

mice [13] = assay: Interaction with oxotremorine; format: in vivo, mouse; conditions: i.p.
Method: CRL 41 153 is administered to groups of 6 mice 0.5 hour before the intraperitoneal injection of 0.5 mg/kg of oxotremorine.

rats [14] = assay: Interaction with apomorphine in rats; format: in vivo, rat; conditions: i.p.
Method: CRL 41 153 is administered to groups of 6 rats 0.5 hour before the subcutaneous injection of 0.5 mg/kg of apomorphine.

[15] = tested on: gravid White New Zealand female rabbits; assay: Teratogenicity in gravid White New Zealand rabbits; format: in vivo, rabbit; conditions: day 5 to day 18 of gestation; for Affected foetuses, %: normal limit 1.5%
How it was run: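 Fetuses harvested by cesarean on gestation day 29 were scored for number and for any malformation (limb blockade, anury, tail or skull defects, exencephaly).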

mice [16] = assay: Motility reduced by habituation to the enclosure; format: in vivo, mouse; conditions: i.p.
Method: After they have stayed In the actimeters for 18 hours, (he mice (6 per dose, 12 control animals) receive CRL 41 153. They are immediately returned to their respective enclosures and, half an hour later, their motility is recorded for 30 minutes.

[17] = tested on: nigrostriatal dopaminergic system; assay: Interaction with alpha-methyltyrosine on stereotypies (difference from amphetamine); conditions: α-methyltyrosine (catecholamine synthesis blocked)
mice [18] = assay: Interaction with reserpine; format: in vivo, mouse; conditions: i.p.
Method: Four hours after the intraperitoneal injection of 2.5 mg/kg of reserpine, groups of 6 mice receive CRL 41 153.

mice [19] = assay: Intergroup aggressiveness; format: in vivo, mouse; conditions: i.p.
Method: After they have stayed for 3 weeks in the two halves of a cage divided by an opaque partition, groups of 3 mice receive CRL 41 153. Half an hour later, the two groups from the same cage are brought together by removal of the partition, and the number of fights which occur in 10 minutes is noted.

humans = assay: Clinical study: vasodilator; format: in vivo, human
Description: In the treatment of diseases associated with the blood circulation through the vessels.

dogs = assay: Cardiovascular study in anesthetized dogs; format: in vivo, dog
Method: Two dogs (average weight: 14.1 kg), anesthetized with nembutal, receive CRL 41 194 by intraduodenal administration at successive doses of 0.1 mg/kg, 0.5 mg/kg, 1 mg/kg, 2.5 mg/kg, 5 mg/kg and 10 mg/kg (in solution in physiological solvent).
The blood pressure, the heart rate, the blood flow through the femoral artery, the blood flow through the vertebral artery and the rectal temperature are measured. The coloration of the skin and the coloration of the bile, collected by catheterization of the bile duct after ligature of the cystic duct, are observed.
4 dogs (average weight: 14 kg), anesthetized with nembutal, receive CRL 41 221 by intraduodenal administration at successive doses of 0.1 mg/kg, 0.5 mg/kg, 1 mg/kg, 2.5 mg/kg, 5 mg/kg and 10 mg/kg. The blood pressure, the heart rate, the blood flow through the femoral artery, the blood flow through the vertebral artery and the rectal temperature are measured. The coloration of the skin is observed.

[20] = pH of solutions in distilled water; format: physicochemical
Method: The neuropsychopharmacological study was undertaken according to the procedures described above for CRL 41 153, CRL 41 213 being adminstered intraperitoneally, in solution in distilled water, in a volume of 20 ml/kg to male mice and a volume of 5 ml/kg to male rats, and the pH of the injected solution varying with the concentration of CRL 41 213 according to the data given in Table II below.

mice [21] = assay: Asphyxiant anoxia (gallamine triiodoethylate); format: in vivo, mouse; conditions: i.p., curarizing agent
Method: Groups of 10 mice receive CRL 41 153 half an hour before the intraperitoneal administration of 32 mg/kg of gallamine triiodoethylate (reference curarizing agent).

[22] = Particular toxicity in grouped mice; conditions: mouse, in vivo, ip
Method: as §3

With `CC(NC(C)(C)C)C(=O)c1ccc(N)cc1` (stereo not shown) [CRL 41 178] the “Effect on convulsant effects of electric shock” value (mice [1]) was “at high doses, antagonism of the convulsant effects of electric shock”, the “Overall behavior: observed effects (summary)” value (from here on “Overall behavior”) (mice [2]) was “excitation and hyperreactivity in mice and rats” and the “Effect on stereotypies induced by amphetamine” value (rats [3]) was “potentiation of the effects of apomorphine and amphetamine in rats”. For the same molecule, the “Anticonvulsant effects (overall)” value (CNS [4]; conclusion of the tests) was “anticonvulsant effects”, the “Antidepressant effects (overall)” value (CNS [4]; conclusion of the tests) was “more modest antidepressant effects; also recorded: antidepressant component” and the “Stimulant effects (overall)” value (CNS [4]; conclusion of the tests) was “distinct stimulant effects; also recorded: behaves as a stimulant as from the weakest doses”. For the same molecule, the “α-adrenergic stimulant effects (overall)” value (CNS [4]; conclusion of the tests) was “moderate α-adrenergic stimulant effects”, the “Peripheral α-adrenergic signs (mydriasis, salivation, lacrimation, exophthalmos)” value (CNS [4]) was “mydriasis (with neither piloerection nor salivation)” and the “Effect on hypothermia induced by apomorphine” value (mice [5]) was “antagonism of the hypothermia”. The “Overall behavior” value (rats [6]) was “excitation and hyperreactivity in mice and rats”, the “Stereotype movements (summary)” value (rats [6]) was “presence of stereotype movements” and the Spontaneous motor activity (mice [7]) was “increase in the motor activity”. For the same molecule, the “Motor recovery of mice after hypobaric hypoxia” value (mice [8]) was “improvement in the motor recovery of mice whose activity has been depressed following hypobaric hypoxia”, the “Action on gastric (oral) administration compared with intraperitoneal” value (CNS [9]) was “same types of action as after intraperitoneal administration; also recorded: the antidepressant effects are apparently developed better by oral administration than by intraperitoneal administration” and the “Particular toxicity to grouped mice” value (mice [10]) was “existence of a particular toxicity to grouped mice”. For the same molecule, the “Duration of the sleep induced by barbital” value (mice [11]) was “antagonism of the sleep induced by barbital”, the “Period of immobility due to despair” value (mice [12]) was “reduction in the period of immobility” and the “Effect on hypothermic action of oxotremorine” value (mice [13]) was “antagonism of the hypothermia”. For the same molecule, the “Effect on stereotypies induced by apomorphine” value (rats [14]) was “potentiation of the effects of apomorphine and amphetamine in rats”, the “Affected foetuses, number” value ([15]; 5 mg/kg daily) was 1 and the “Total foetuses (live)” value ([15]; 5 mg/kg daily) was 90. The “Affected foetuses, %” value ([15]; 5 mg/kg daily) was 1.11%, the “Affected foetuses, number” value ([15]; 10 mg/kg daily) was 1 and the “Total foetuses (live)” value ([15]; 10 mg/kg daily) was 83. The “Affected foetuses, %” value ([15]; 10 mg/kg daily) was 1.20%, the “Affected foetuses, number” value ([15]; 50 mg/kg daily) was 1 and the “Total foetuses (live)” value ([15]; 50 mg/kg daily) was 92. The “Affected foetuses, %” value ([15]; 50 mg/kg daily) was 1.10%, the “Motor activity of mice accustomed to their enclosure” value (mice [16]) was “resumption in the activity of mice accustomed to their enclosure” and the “Effect of alpha-methyltyrosine on the stereotypies induced by the substance” value [17] was “differs from amphetamine in the mechanism of the effects which cause stereotypies”. The “Effect on hypothermia induced by reserpine” value (mice [18]) was “antagonism of the hypothermia” and the “Effect on ptosis induced by reserpine” value (mice [18]) was “slight antagonism of the ptosis induced by reserpine”.

In the case of `CCNC(C)C(=O)c1ccc(N)cc1` (stereo not shown) [CRL 41 225], the “Effect on convulsant effects of electric shock” value (mice [1]) is reported as “at strong doses, a decrease in the convulsant effects of electric shock”, the “Number of punished passes in the four plate test” value (mice [1]) is reported as “an increase in the number of punished passes in the 4 plate test on mice” and the “Number of fights / intergroup aggressiveness” value (mice [19]) is reported as “at strong doses, a decrease in the number of fights”. For the same molecule, the “Overall behavior” value (mice [2]) was “excitation with hyperreactivity in mice and rats”, the “Stereotype movements (summary)” value (mice [2]) was “the presence of stereotype movements in mice and rats” and the “Effect on stereotypies induced by amphetamine” value (rats [3]) was “potentiation of the stereotypies”. The “Antidepressant effects (overall)” value (CNS [4]; conclusion of the tests) was “antidepressant and stimulant properties”, the “Stimulant effects (overall)” value (CNS [4]; conclusion of the tests) was “antidepressant and stimulant properties” and the “α-adrenergic stimulant effects (overall)” value (CNS [4]; conclusion of the tests) was “an α-adrenergic stimulation component”. The “Peripheral α-adrenergic signs (mydriasis, salivation, lacrimation, exophthalmos)” value (CNS [4]) was “at strong doses, by a reduction in the mydriasis and salivation”, the “Effect on hypothermia induced by apomorphine” value (mice [5]) was “antagonism of the hypothermia” and the “Overall behavior” value (rats [6]) was “excitation with hyperreactivity in mice and rats”. For the same molecule, the “Stereotype movements (summary)” value (rats [6]) was “the presence of stereotype movements in mice and rats”, the Spontaneous motor activity (mice [7]) was “an increase in the spontaneous motor activity of mice” and the “Vasodilator in human clinical use” value (humans) was “beneficial vasodilating properties from the clinical point of view”. For the same molecule, the “Motor recovery of mice after hypobaric hypoxia” value (mice [8]) was “improvement in the motor recovery”, the “Vasodilator (conclusion)” value (dogs) was “vasodiating properties” and the “Duration of the sleep induced by barbital” value (mice [11]) was “a reduction in the duration of the sleep induced by barbital”. The “Period of immobility due to despair” value (mice [12]) was “a decrease in the period of immobility”, the pH ([20]; 0.1 g/liter in distilled water) was 5.0 and the pH ([20]; 0.2 g/liter in distilled water) was 4.5. It also gave a pH ([20]; 0.4 g/liter in distilled water) of 4.0, a pH ([20]; 0.8 g/liter in distilled water) of 3.5 and a pH ([20]; 2 g/liter in distilled water) of 3.0. It also gave a pH ([20]; 3 g/liter in distilled water) of 2.5, a pH ([20]; 13 g/liter in distilled water) of 2.0 and a pH ([20]; 50 g/liter in distilled water) of 1.5. For the same molecule, the pH ([20]; ≤0.05 g/liter in distilled water) was 5.5, the “Effect on hypothermic action of oxotremorine” value (mice [13]) was “antagonism of the hypothermia” and the “Effect on trembling induced by oxotremorine” value (mice [13]) was “a decrease in the intensity of the trembling caused by oxotremorine”. The “Effect on stereotypies induced by apomorphine” value (rats [14]) was “potentiation of the stereotypies”, the “Affected foetuses, number” value ([15]; 5 mg/kg daily) was 0 and the “Total foetuses (live)” value ([15]; 5 mg/kg daily) was 91. For the same molecule, the “Affected foetuses, %” value ([15]; 5 mg/kg daily) was 0%, the “Affected foetuses, number” value ([15]; 10 mg/kg daily) was 0 and the “Total foetuses (live)” value ([15]; 10 mg/kg daily) was 95. For the same molecule, the “Affected foetuses, %” value ([15]; 10 mg/kg daily) was 0%, the “Motor activity of mice accustomed to their enclosure” value (mice [16]) was “resumption in the motor activity of mice accustomed to their enclosure” and the “Time taken for convulsions to occur” value (mice [21]) was “a decrease in the time taken for convulsions and death to occur”. For the same molecule, the “Time taken for death to occur” value (mice [21]) was “a decrease in the time taken for convulsions and death to occur”, the “Effect on hypothermia induced by reserpine” value (mice [18]) was “antagonism of the hypothermia” and the “Effect on ptosis induced by reserpine” value (mice [18]) was “a decrease in the ptosis induced by reserpine in mice”.

In the case of `CC(N)Cc1ccccc1` (stereo not shown) [amphetamine, reference compound], the selectivity ratio [22] is reported as ~8 and the “Effect of alpha-methyltyrosine on the stereotypies induced by the substance” value [17] is reported as “totally inhibits the stereotypies induced by amphetamine; also recorded: totally inhibited”.
